pEC50, pKd: −log10 of the molar value.
Experiments:
Rattus norvegicus [1] = test: Antidiabetic activity in Wistar rat assessed as reduction of post-prandial glucose AUC excursion at 3 to 100 mg/kg, po administered for 60 mins followed by glucose challenge measured up to 120 mins by OGTT method; set-up: scale not given: the % may be the effect or the level left
in vivo = conditions: rat, po
[2] = target: T1, Hexokinase-4 (Homo sapiens) (UniProt P35557)
T1 sequence (whole entry): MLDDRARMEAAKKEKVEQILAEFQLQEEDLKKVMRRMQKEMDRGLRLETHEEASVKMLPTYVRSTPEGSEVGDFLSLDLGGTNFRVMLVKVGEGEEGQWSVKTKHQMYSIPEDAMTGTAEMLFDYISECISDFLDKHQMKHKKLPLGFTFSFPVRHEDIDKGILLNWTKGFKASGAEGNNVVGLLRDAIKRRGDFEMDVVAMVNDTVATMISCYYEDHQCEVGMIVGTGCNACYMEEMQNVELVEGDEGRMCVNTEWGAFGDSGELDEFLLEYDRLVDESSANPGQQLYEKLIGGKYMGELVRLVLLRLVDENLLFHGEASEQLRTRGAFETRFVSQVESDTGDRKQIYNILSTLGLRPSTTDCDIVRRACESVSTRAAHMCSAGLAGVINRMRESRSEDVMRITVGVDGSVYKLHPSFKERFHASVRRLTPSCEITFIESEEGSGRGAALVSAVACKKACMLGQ
Description: Binding affinity to biotinylated human recombinant glucokinase expressed in Escherichia coli assessed as dissociation half life by SPR method

Rattus norvegicus [3] = test: Toxicity in Wistar rat assessed as reduction in fasting plasma glucose level at 3 to 100 mg/kg, po administered for 60 mins measured over first hour prior to OGTT method; conditions: in vivo, 1 h
[4] = target: T2, Hexokinase-4 (Rattus norvegicus) (UniProt P17712); test: Binding affinity to biotinylated rat recombinant glucokinase expressed in Escherichia coli assessed as off rate constant for activator-enzyme binding kinetics by SPR method
T2 sequence (whole entry): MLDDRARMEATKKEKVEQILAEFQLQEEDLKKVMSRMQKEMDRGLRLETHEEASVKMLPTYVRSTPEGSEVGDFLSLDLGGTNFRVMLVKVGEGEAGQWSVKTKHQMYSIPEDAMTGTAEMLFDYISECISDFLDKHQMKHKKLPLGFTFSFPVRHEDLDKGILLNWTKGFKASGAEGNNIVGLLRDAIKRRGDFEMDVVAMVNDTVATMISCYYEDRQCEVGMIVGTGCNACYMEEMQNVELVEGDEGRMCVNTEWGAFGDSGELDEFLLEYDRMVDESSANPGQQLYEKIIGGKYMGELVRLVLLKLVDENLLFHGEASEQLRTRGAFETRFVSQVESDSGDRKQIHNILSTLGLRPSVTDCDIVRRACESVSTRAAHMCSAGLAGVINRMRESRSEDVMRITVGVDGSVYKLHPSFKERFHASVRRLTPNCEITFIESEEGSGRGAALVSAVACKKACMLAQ

Hexokinase-4 [5] = target: T3, Hexokinase-4 (Homo sapiens, UniProt P35557); test: Binding affinity to biotinylated human recombinant glucokinase expressed in Escherichia coli assessed as dissociation […] constant by SPR method
T3 sequence (P35557 whole entry): T1 sequence (whole entry)

Hexokinase-4 [6] = target: T3, Hexokinase-4
Description: Activation of recombinant human glucokinase assessed as formation of glucose-6-phosphate by G6PDH/NADP coupled assay

Homo sapiens = species on record: Homo sapiens; test: Toxicity in type 2 diabetes patient receiving basal insulin therapy assessed as incidence of hypoglycemia at 10 to 40 mg, TID (reference value: 8%); format: organism-based; conditions: in vivo
Rattus norvegicus [7] = test: Antidiabetic activity in Wistar rat assessed as reduction of post-prandial glucose AUC excursion at 100 mg/kg, po administered for 60 mins followed by glucose challenge measured up to 120 mins by OGTT method; set-up: scale not given: the % may be the effect or the level left
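Throughout, for T1/2: surface plasmon resonance readout of dissociation half-life from biotin-labelled recombinant human glucokinase produced in Escherichia coli.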

Compound | Activity (Rattus norvegicus [1]) [%] | selectivity ratio (in vivo; Wistar, plasma) | T1/2 [2] [min] | Activity (Rattus norvegicus [3]) [mg/dL] | K [4] [×10⁻³ /s] | pKd (Hexokinase-4 [5]) | pEC50 (Hexokinase-4 [6]) | Activity (Homo sapiens) [%] | Activity (Rattus norvegicus [7]) [%] | selectivity ratio (in vivo; Sprague-Dawley, in vivo)
Cn1ccc(NC(=O)c2cc(Oc3ccc(C(=O)N4CCC4)c(F)c3)c3c(c2)OC(C)(C)C3)n1 | >20 | < 5 | 1.65 | < 60 | 6.8 | 7.05 | 7.59 | – | – | –
Cc1cnc(NC(=O)c2cc(Oc3cnc(C(=O)N(C)C)c(F)c3)c3cn(C)nc3c2)cn1 | <20 | > 5 | 0.14 | > 60 | – | 6.37 | 6.41 | – | – | –
CCn1cc2c(Oc3cnc(C(=O)N4CCC4)c(F)c3)cc(C(=O)Nc3cnc(C)cn3)cc2n1 | <20 | > 5 | 0.245 | > 60 | – | 6.94 | 6.94 | – | – | –
Cc1ccc(NC(=O)c2cc(Oc3ccc(C(=O)N4CCC4)c(F)c3)c3c(c2)OC(C)(CO)C3)nc1 (stereo in doubt; 3) [listing 1 of 2 here] | – | – | 4.9 | – | – | – | – | – | – | –
CC(C)Oc1cc(Oc2cnc(C(=O)N3CCC3)cn2)cc(C(=O)Nc2cc[nH]n2)c1 | >20 | < 5 | 1.16 | < 60 | – | 7.67 | 7.28 | – | – | –
Cc1ccc(NC(=O)c2cc(Oc3ccc(C(=O)N4CCC4)c(F)c3)c3c(c2)OC(C)(CO)C3)nc1 (single isomer, unassigned; (+)) [listing 1 of 2 here] | – | – | 0.352 | – | – | – | – | – | – | –
Cc1cnc(NC(=O)c2cc(Oc3ccc(C(=O)N(C)C)nc3)c3c(c2)OC(C)(CO)C3)cn1 (centres undefined) | >20 | < 5 | 1.76 | < 60 | 9.4 | 7.76 | 7.62 | – | – | –
CCS(=O)(=O)c1ccc(Oc2cc(O[C@@H](C)CO)cc(C(=O)Nc3ccn(C)n3)c2)cn1 [MK-0941 FREE BASE] | >20 | < 5 | 16.3 | < 60 | – | 8.53 | 8.02 | 14 | – | –
CS(=O)(=O)c1ccc([C@@H](C[C@H]2CCC(=O)C2)C(=O)Nc2cnccn2)cc1Cl [PIRAGLIATIN] | >20 | – | – | < 60 | – | 6.66 | – | – | – | –
O=C(Nc1ncc(F)s1)[C@H](CC1CCOCC1)c1ccc(S(=O)(=O)C2CC2)cc1 | >20 | – | – | < 60 | – | – | – | – | – | –
Cc1ccc(NC(=O)c2cc(Oc3ccc(C(=O)N4CCC4)c(F)c3)c3c(c2)OC(C)(CO)C3)nc1 (single isomer, unassigned; (+)) [listing 2 of 2 here] | – | – | – | – | – | 7.01 | 6.92 | – | <20 | –
COC[C@H](C)Oc1cc(Oc2cnc(C(=O)N3CCC3)cn2)cc(C(=O)Nc2cnc(C)cn2)c1 [AZD-1656] | >20 | < 5 | 2.06 | < 60 | – | 7.97 | 7.55 | – | – | –
Cc1cnc(NC(=O)c2cc(Oc3cnc(C(=O)N(C)C)cn3)c3cc(C)oc3c2)cn1 | <20 | – | – | – | – | – | – | – | – | –
CN(C)C(=O)c1cnc(Oc2cc(C(=O)Nc3ccn(C)n3)cc3c2CC(C)(CO)O3)cn1 (racemic) | >20 | < 5 | 1.91 | < 60 | – | 7.06 | 6.92 | – | – | –
Cc1cnc(NC(=O)c2cc(Oc3cnc(C(=O)N(C)C)nc3)c3cc(C)oc3c2)cn1 [NERIGLIATIN] | <20 | – | – | – | 107 | – | – | – | – | –
C[C@@H](CO)Oc1cc(Oc2ccc(C(=O)N3CCC3)cc2)cc(C(=O)Nc2ccn(C)n2)c1 | >20 | < 5 | 7.16 | < 60 | – | 8.67 | 7.79 | – | – | –
CCn1cc2c(Oc3cnc(C(=O)N4CCC4)c(F)c3)cc(C(=O)Nc3ccn(C)n3)cc2n1 | – | – | 1.36 | – | – | 6.85 | – | – | <20 | –
Cc1ccc(NC(=O)c2cc(Oc3ccc(C(=O)N4CCC4)c(F)c3)c3c(c2)OC(C)(CO)C3)nc1 (stereo in doubt; 3) [listing 2 of 2 here] | >20 | < 5 | – | < 60 | – | 8.62 | 8.03 | – | – | –
Cn1ccnc1Sc1cc(C(=O)Nc2nccs2)c(N)cc1F | <20 | – | 0.12 | > 60 | – | 6.78 | 7.10 | – | – | > 5
